Measurements published in BindingDB's records for PubMed 38330869 (National Institute of Pharmaceutical Education and …).

Assay: Inhibition of wild type influenza A virus H5N1 (A/chicken/Hubei/327/2004) matrix protein 2 transfected in yeast assessed as yeast growth restoration measured after 46 to 48 hrs

SMILES | EC50
Cc1cc(CNS(=O)(=O)c2ccc([N+](=O)[O-])cc2)c(C)s1 | 2.21 µM
Cc1cc(CNS(=O)(=O)c2ccc(Br)cc2)c(C)s1 | 1.58 µM
Cc1cc(CNS(=O)(=O)c2ccc(Cl)cc2)c(C)s1 | 1.08 µM
Cc1cc(CNS(=O)(=O)c2ccc([N+](=O)[O-])cc2)c(C)o1 | 1.71 µM
Cc1cc(CNS(=O)(=O)c2ccc(C#N)cc2)c(C)s1 | 1.4 µM
O=[N+]([O-])c1ccc(S(=O)(=O)NCc2csc3ccccc23)cc1 | 3.44 µM
Cc1cc(CNS(=O)(=O)c2ccc(Cl)cc2)c(C)o1 | 3.07 µM
